The values that follow come from patent US7687643B2, “Process for preparing 3,3-dimethylindolines” (Amgen Inc., priority 2001, dated 2010).

SMILES strings stand for the structures. Some results are limits rather than exact numbers.

This test deals with Human Umbilical Vein Endothelial cells (VEGF-stimulated). Nature of the test: HUVEC proliferation assay, VEGF-stimulated. In kind it is cell-based. The settings on record: VEGF 50 ng/mL, 72 h, CyQuant, read-out: inhibited VEGF-stimulated HUVEC proliferation at a level. In a few lines:
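Pooled-donor HUVECs (passage 2–3) seeded in DMEM+10% FBS for 22 h, then pre-treated 2–3 h with five-point, five-fold compound dilutions (0.25% DMSO final). Stimulated with 50 ng/mL VEGF (bFGF 20 ng/mL on separate plates) for 72 h at 37 °C. CyQuant fluorescence (485/530 nm) after freeze-thaw; IC50 from 4-parameter fit.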
For `O=C(Nc1ccc2c(c1)N(CCN1CCCCC1)CC2)c1cccnc1NCc1ccncc1` [Example 130, N-[1-(2-Piperidylethyl)indolin-6-yl]{2-[(4-pyridylmethyl)amino](3-pyridyl)}carboxamide], the IC50 was < 50 nM.

Regarding `CCOC(=O)N1CC2(CC2)c2ccc(NC(=O)c3cccnc3NCc3ccnc(NC)n3)cc21` [Example 1108, Ethyl [1,2-dihydro-6-({2-[(2-methylamino-pyrimidin-4-ylmethyl)-amino]-pyridine-3-carbonyl}-amino)-3-spiro-1′-cyclopropyl-1H-indole]-1-carbamate], the IC50 is < 50 nM.

As to `O=C(Nc1ccc(C(F)(F)C(F)(F)F)c(OC[C@@H](O)CN2CCCC2)c1)c1cccnc1NCc1ccncc1` [Example 952, (S) N-[3-(2-Hydroxy-3-pyrrolidin-1-yl-propoxy)-4-pentafluoroethyl-phenyl]-2-[(pyridin-4-ylmethyl)-amino]-nicotinamide], the IC50 is < 50 nM.

Consider `COc1cc(CNc2ncccc2C(=O)Nc2ccc(C(C)C)cc2)ccn1` [Example 140, (2-{[(2-Methoxy(4-pyridyl))methyl]amino}(3-pyridyl))-N-[4-(methylethyl)phenyl]carboxamide], for which the IC50 is < 50 nM.

Take `O=C(Nc1cccc(C(F)(F)F)c1)c1cccnc1NCc1ccc2c(c1)CCO2` [Example 827, {2-[(2,3-Dihydrobenzo[b]furan-5-ylmethyl)amino](3-pyridyl)}-N-[3-(trifluoromethyl)phenyl]carboxamide]: the IC50 is < 50 nM.

For `CC1(C)CNc2cc(NC(=O)c3cccnc3NCc3ccncc3)ccc2O1` [Example 995, N-(2,2-Dimethyl-3,4-dihydro-2H-benzo[1,4]oxazin-6-yl)-2-[(pyridin-4-ylmethyl)-amino]-nicotinamide], the IC50 is < 50 nM.

Turning to `CNc1nccc(CNc2ncccc2C(=O)Nc2ccc3c(c2)NC(=O)CC3(C)C)n1` [Example 1115, N-(4,4-Dimethyl-2-oxo-1,2,3,4-tetrahydro-quinolin-7-yl)-2-[(2-methylamino-pyrimidin-4-ylmethyl)-amino]-nicotinamide], the IC50 is < 50 nM.

`O=C(Nc1ccc(C(F)(F)C(F)(F)F)c(OC[C@H](O)CN2CCCC2)c1)c1cccnc1NCc1ccncc1` [Example 951, (R) N-[3-(2-Hydroxy-3-pyrrolidin-1-yl-propoxy)-4-pentafluoroethyl-phenyl]-2-[(pyridin-4-ylmethyl)-amino]-nicotinamide]: the IC50 was < 50 nM.

With `CS(=O)(=O)NCCOc1cc(NC(=O)c2cccnc2NCc2ccncc2)ccc1C(F)(F)F` [Example 1032, N-(3-((2-((Methylsulfonyl)amino)ethyl)oxy)-4-(trifluoromethyl)phenyl)-2-((4-pyridinylmethyl)amino)-3-pyridinecarboxamide], the IC50 is < 50 nM.

For the compound `CNc1cc(CNc2ncccc2C(=O)Nc2ccc3c(c2)CNCC3(C)C)ccn1` [Example 1130, N-(4,4-Dimethyl-1,2,3,4-tetrahydro-isoquinolin-7-yl)-2-[(2-methylamino-pyridin-4-ylmethyl)-amino]-nicotinamide], the IC50 was < 50 nM.

As to `COc1cc(CNc2ncccc2C(=O)Nc2ccc3c(c2)CNCC32CC2)ccn1` [Example 1128, N-(4-Spiro-1′-cyclopropane-1,2,3,4-tetrahydroisoquinolin-7-yl)-2-[(2-methoxy-pyridin-4-ylmethyl)-amino]-nicotinamide], the IC50 was < 50 nM.

In the case of `CNc1nccc(CNc2ncccc2C(=O)Nc2cc(OC[C@H]3CCCN3C(C)=O)cc(C(F)(F)F)c2)n1` [Example 1085, N-(3-((((2R)-1-acetyl-2-pyrrolidinyl)methyl)oxy)-5-(trifluoromethyl)phenyl)-2-(((2-(methylamino)-4-pyrimidinyl)methyl)amino)-3-pyridinecarboxamide], the IC50 was < 50 nM.

With `CC(C)c1ccc(NC(=O)c2cccnc2NCc2ccc3ocnc3c2)cc1` [Example 1120, 2-((1,3-Benzoxazol-5-ylmethyl)amino)-N-(4-(1-methylethyl)phenyl)-3-pyridinecarboxamide], the IC50 was < 50 nM.

As for `CC1(C)CN(S(C)(=O)=O)c2cc(NC(=O)c3cccnc3NCc3ccncc3)ccc21` [Example 1068, N-(3,3-dimethyl-1-(methylsulfonyl)-2,3-dihydro-1H-indol-6-yl)-2-((4-pyridinylmethyl)amino)-3-pyridinecarboxamide], the IC50 was < 50 nM.

For the compound `CNc1cc(CNc2ncccc2C(=O)Nc2ccc3c(c2)NCCC3(C)C)ccn1` [Example 1194], the IC50 is < 50 nM.

For `CN1CCC[C@@H]1COc1cc(NC(=O)c2cccnc2NCc2ccncc2)cc(C(F)(F)F)c1` [Example 917, (R) N-[3-(1-Methyl-pyrrolidin-2-ylmethoxy)-5-trifluoromethyl-phenyl]-2-[(pyridin-4-ylmethyl)-amino]-nicotinamide], the IC50 is < 50 nM.

`O=C(Nc1ccc(C(F)(F)F)cc1)c1cccnc1NCc1ccncc1` [Example 165, {2-[(4-Pyridylmethyl)amino](3-pyridyl)}-N-[4-(trifluoromethyl)phenyl]carboxamide]: the IC50 was < 50 nM.

Take `COC(=O)C(C)(C)c1ccc(NC(=O)c2cccnc2NCc2ccncc2)cc1` [Example 985, 2-Methyl-2-[4-({2-[(pyridin-4-ylmethyl)-amino]-pyridine-3-carbonyl}-amino)-phenyl]-propionic acid methyl ester]: the IC50 is < 50 nM.

With `O=C(Nc1cc(O)cc(C(F)(F)F)c1)c1cccnc1NCc1ccncc1` [Example 978, N-(3-Hydroxy-5-trifluoromethyl-phenyl)-2-[(pyridin-4-ylmethyl)-amino]-nicotinamide], the IC50 was < 50 nM.

As to `CC(C)(C)c1ccc(NC(=O)c2ccc(F)nc2NCc2ccncc2)cc1` [Example 154, N-[4-(tert-Butyl)phenyl]{6-fluoro-2-[(4-pyridylmethyl)amino](3-pyridyl)}carboxamide], the IC50 is < 50 nM.

Regarding `CNc1nccc(CNc2ncccc2C(=O)Nc2ccc3c(c2)NC(=O)C3(C(F)(F)F)C(F)(F)F)n1` [Example 1036, 2-(((2-(Methylamino)-4-pyrimidinyl)methyl)amino)-N-(2-oxo-3,3-bis(trifluoromethyl)-2,3-dihydro-1H-indol-6-yl)-3-pyridinecarboxamide], the IC50 is < 50 nM.

For `COc1cc(CNc2ncccc2C(=O)Nc2ccc(C(C)(C)C)c(OC[C@@H]3CCCN3)c2)ccn1` [Example 1067, N-(4-(1,1-dimethylethyl)-3-(((2S)-2-pyrrolidinylmethyl)oxy)phenyl)-2-(((2-(methyloxy)-4-pyridinyl)methyl)amino)-3-pyridinecarboxamide], the IC50 was < 50 nM.

As to `CC(C)(C)c1ccc(NC(=O)c2cccnc2NCc2ccnc(OCCN3CCOCC3)c2)cc1` [Example 905, N-(4-tert-Butyl-phenyl)-2-{[2-(2-morpholin-4-yl-ethoxy)-pyridin-4-ylmethyl]-amino}-nicotinamide], the IC50 is < 50 nM.

As for `CC(=O)N1CC(C)(C)Oc2ccc(NC(=O)c3cccnc3NCc3ccncc3)cc21` [Example 943, N-(4-Acetyl-2,2-dimethyl-3,4-dihydro-2H-benzo[1,4]oxazin-6-yl)-2-[(pyridin-4-ylmethyl)-amino]-nicotinamide], the IC50 was < 50 nM.

On to `CC1(C)Oc2ccc(NC(=O)c3cccnc3NCc3ccncc3)cc2NC1=O` [Example 944, N-(2,2-Dimethyl-3-oxo-3,4-dihydro-2H-benzo[1,4]oxazin-6-yl)-2-[(pyridin-4-ylmethyl)-amino]-nicotinamide], for which the IC50 was < 50 nM.

As for `COc1cc(CNc2ncccc2C(=O)Nc2ccc3c(c2)NC(=O)CC3(C)C)ccn1` [Example 1116, N-(4,4-Dimethyl-2-oxo-1,2,3,4-tetrahydro-quinolin-7-yl)-2-[(2-methoxy-pyridin-4-ylmethyl)-amino]-nicotinamide], the IC50 is < 50 nM.

For `CNc1cc(CNc2ncccc2C(=O)Nc2cc(OC[C@@H]3CCCN3C)cc(C(F)(F)F)c2)ccn1` [Example 1143, 2-[(2-Methylamino-pyridin-4-ylmethyl)-amino]-N-[3-(1-methyl-pyrrolidin-2-ylmethoxy)-5-trifluoromethyl-phenyl]-nicotinamide], the IC50 is < 50 nM.

In the case of `CN1CC(C)(C)Oc2ccc(NC(=O)c3cccnc3NCc3ccncc3)cc21` [Example 942, 2-[(Pyridin-4-ylmethyl)-amino]-N-(2,2,4-trimethyl-3,4-dihydro-2H-benzo[1,4]oxazin-6-yl)-nicotinamide], the IC50 is < 50 nM.

As to `O=C(Nc1cc(OCC2CNC2)cc(C(F)(F)F)c1)c1cccnc1NCc1ccncc1` [Example 977, N-[3-(azetidin-3-ylmethoxy)-5-trifluoromethyl-phenyl]-2-[(pyridin-4-ylmethyl)-amino]-nicotinamide], the IC50 is < 50 nM.

For `CC1(C)CN(C(=O)c2cc[n+]([O-])cc2)c2cc(NC(=O)c3cccnc3NCc3ccncc3)ccc21` [Example 1100, N-[3,3-Dimethyl-1-(1-oxy-pyridine-4-carbonyl)-2,3-dihydro-1H-indol-6-yl]-2-[(pyridin-4-ylmethyl)-amino]-nicotinamide], the IC50 was < 50 nM.

Take `CNc1nccc(CNc2ncccc2C(=O)Nc2cc(NS(C)(=O)=O)cc(C(F)(F)F)c2)n1` [Example 1093, 2-(((2-(methylamino)-4-pyrimidinyl)methyl)amino)-N-(3-((methylsulfonyl)amino)-5-(trifluoromethyl)phenyl)-3-pyridinecarboxamide]: the IC50 is < 50 nM.

As to `O=C(Nc1ccc(C(F)(F)F)c(OCCN2CCCC2)c1)c1cccnc1NCc1ccnc2ccccc12` [Example 1021, N-(3-((2-(1-pyrrolidinyl)ethyl)oxy)-4-(trifluoromethyl)phenyl)-2-((4-quinolinylmethyl)amino)-3-pyridinecarboxamide], the IC50 is < 50 nM.

Regarding `O=C(Nc1cccc(C(F)(F)F)c1)c1cccnc1NCc1ccc2ncccc2c1` [Example 169, {2-[(6-Quinolylmethyl)amino](3-pyridyl)}-N-[3-(trifluoromethyl)phenyl]carboxamide], the IC50 is < 50 nM.
